Source: patent publication US10918713B2, “Epitopes from allergen proteins and methods and uses for immune response modulation” (LA JOLLA INSTITUTE FOR ALLERGY AND IMMUNOLOGY, priority 2012, dated 2021)
Values joined by “and” are separate entries in the source; they are usually repeats but may differ in a detail not shown here. Identical values can stand only once.

How the values were obtained:
Format in all cases: cell-based, human
[1] = test system: PBMC from allergic donors; assay: Dual ELISPOT, total IL-5 and IFN-γ response (SFC); details: sum of IFNg and IL-5
Experimental: (§1) Spots were counted by computer-assisted image analysis (Zeiss, KS-ELISPOT reader, Munich, Germany).
(§2) Each assay was performed in triplicate. The level of statistical significance was determined with a Student's t-test using the mean of triplicate values of the response against relevant pools or individual peptides versus the response against the DMSO control.

[2] = test system: PBMC from allergic donors; assay: IFN-γ ELISPOT with extract-stimulated short-term lines; details: positive donor/peptide response
Experimental: as §1, §2

[3] = test system: PBMC from allergic donors; assay: IL-5 ELISPOT with extract-stimulated short-term lines; details: positive donor/peptide response
Experimental: as §1, §2

| Compound | Response (SFC/10^6) Total ([1]; one donor per table line) | Response (SFC/10^6) IFNg ([2]; one donor per table line) | Response (SFC/10^6) IL-5 ([3]; one donor per table line) | Response (SFC/10^6) Total ([1]; each table line is one donor) | Response (SFC/10^6) IFNg ([2]; each table line is one donor) | Response (SFC/10^6) IL-5 ([3]; each table line is one donor) |
| --- | --- | --- | --- | --- | --- | --- |
| 3324.0834 (KAFNKSYATFEDEEA) | 2267 SFC/10^6 | 1563 SFC/10^6 | 703 SFC/10^6 | – | – | – |
| CC[C@H](C)[C@H](N)C(=O)N[C@@H](Cc1ccccc1)C(=O)N[C@@H](CO)C(=O)N[C@@H](CCC(N)=O)C(=O)N[C@@H](CC(N)=O)C(=O)N[C@@H](CCSC)C(=O)N[C@@H](CC(N)=O)C(=O)N[C@H](C(=O)N[C@@H](CCCCN)C(=O)N[C@@H](CC(C)C)C(=O)N[C@@H](CCC(N)=O)C(=O)N[C@@H](CCSC)C(=O)N1CCC[C@H]1C(=O)N[C@@H](CC(C)C)C(=O)N[C@@H](Cc1ccc(O)cc1)C(=O)O)[C@@H](C)CC [3324.0607] | 2607 SFC/10^6 and 70 SFC/10^6 | 70 SFC/10^6 | 2607 SFC/10^6 | – | – | – |
| CC[C@H](C)[C@H](NC(=O)[C@@H](NC(=O)[C@H](CCC(=O)O)NC(=O)[C@H](CC(=O)O)NC(=O)[C@H](Cc1ccccc1)NC(=O)[C@@H](NC(=O)[C@@H](N)CC(N)=O)C(C)C)C(C)C)C(=O)N1CCC[C@H]1C(=O)N[C@H](C(=O)N[C@@H](C)C(=O)N[C@@H](Cc1ccccc1)C(=O)N[C@H](C(=O)N[C@H](C(=O)NCC(=O)N[C@@H](CCCCN)C(=O)O)C(C)C)[C@@H](C)O)[C@@H](C)O [3324.1141] | – | – | – | 2258 SFC/10^6 and 1083 SFC/10^6 | 263 SFC/10^6 | 2258 SFC/10^6 and 820 SFC/10^6 |
| CC[C@H](C)[C@H](NC(=O)[C@H](CCSC)NC(=O)[C@H](CCCNC(=N)N)NC(=O)[C@H](Cc1ccccc1)NC(=O)[C@H](CCCCN)NC(=O)[C@@H](NC(=O)[C@H](CCSC)NC(=O)[C@H](CC(N)=O)NC(=O)[C@H](Cc1ccc(O)cc1)NC(=O)[C@@H](NC(=O)[C@@H](N)CCC(=O)O)[C@@H](C)CC)C(C)C)C(=O)N[C@@H](C)C(=O)NCC(=O)N[C@@H](CCC(N)=O)C(=O)N[C@@H](CCC(=O)O)C(=O)O [3324.0978] | 167 SFC/10^6 and 1100 SFC/10^6 and 667 SFC/10^6 | 667 SFC/10^6 | 167 SFC/10^6 and 1100 SFC/10^6 | – | – | – |
| CC[C@H](C)[C@H](NC(=O)[C@H](CC(N)=O)NC(=O)[C@H](CC(C)C)NC(=O)[C@H](CC(N)=O)NC(=O)[C@H](CCCCN)NC(=O)[C@H](CO)NC(=O)[C@H](Cc1ccccc1)NC(=O)[C@@H](NC(=O)[C@@H](NC(=O)[C@H](Cc1c[nH]c2ccccc12)NC(=O)[C@H](CC(C)C)NC(=O)[C@H](CO)NC(=O)[C@H](CCCNC(=N)N)NC(=O)[C@@H](N)CCC(=O)O)[C@@H](C)CC)[C@@H](C)CC)C(=O)N[C@@H](CCCCN)C(=O)O [3324.0517] | 117 SFC/10^6 and 97 SFC/10^6 | 97 SFC/10^6 | 117 SFC/10^6 | – | – | – |
| 3324.1168 (NAGFKAAVAAAAVVP) | – | – | – | 1723 SFC/10^6 and 977 SFC/10^6 and 248 SFC/10^6 | 850 SFC/10^6 | 873 SFC/10^6 and 977 SFC/10^6 and 248 SFC/10^6 |
| CC[C@H](C)[C@H](NC(=O)[C@@H](N)CC(=O)O)C(=O)N[C@@H](CC(N)=O)C(=O)N[C@H](C(=O)NCC(=O)N[C@@H](Cc1ccccc1)C(=O)N[C@@H](CCCCN)C(=O)N[C@@H](C)C(=O)N[C@@H](C)C(=O)N[C@H](C(=O)N[C@@H](C)C(=O)N[C@@H](C)C(=O)N[C@@H](C)C(=O)N[C@@H](C)C(=O)NCC(=O)O)C(C)C)C(C)C [3324.1571] | – | – | – | 397 SFC/10^6 and 47 SFC/10^6 and 1057 SFC/10^6 and 1183 SFC/10^6 | 47 SFC/10^6 and 1183 SFC/10^6 | 397 SFC/10^6 and 1057 SFC/10^6 |
| CC[C@H](C)[C@H](NC(=O)[C@@H](NC(=O)[C@@H](NC(=O)[C@H](C)NC(=O)[C@@H](NC(=O)[C@H](C)NC(=O)[C@H](CO)NC(=O)[C@H](Cc1c[nH]cn1)NC(=O)[C@@H](NC(=O)[C@H](CCC(N)=O)NC(=O)[C@H](C)NC(=O)[C@H](CC(C)C)NC(=O)[C@H](C)NC(=O)[C@H](CCC(=O)O)NC(=O)[C@@H](N)CCCNC(=N)N)[C@@H](C)O)[C@@H](C)CC)C(C)C)[C@@H](C)CC)C(=O)O [3324.0840] | 1883 SFC/10^6 and 900 SFC/10^6 | 1407 SFC/10^6 | 477 SFC/10^6 and 900 SFC/10^6 | – | – | – |
| CC[C@H](C)[C@H](NC(=O)[C@@H](NC(=O)[C@H](CO)NC(=O)[C@H](C)N)C(C)C)C(=O)N1CCC[C@H]1C(=O)N1CCC[C@H]1C(=O)N[C@@H](C)C(=O)N[C@@H](CCCNC(=N)N)C(=O)N[C@@H](CC(C)C)C(=O)N[C@@H](Cc1ccccc1)C(=O)N[C@@H](CCCCN)C(=O)N[C@@H](C)C(=O)N[C@@H](Cc1ccccc1)C(=O)N[C@H](C(=O)N[C@@H](CC(C)C)C(=O)O)C(C)C [3324.1587] | 273 SFC/10^6 and 330 SFC/10^6 and 97 SFC/10^6 and 100 SFC/10^6 | 273 SFC/10^6 and 127 SFC/10^6 | 203 SFC/10^6 and 97 SFC/10^6 and 100 SFC/10^6 | – | – | – |
| 3324.1104 (LGFFKKEALPQCAQV) | 627 SFC/10^6 | 53 SFC/10^6 | 573 SFC/10^6 | – | – | – |
| 3324.0836 (EIDLRQMRTVTPIRM) | 733 SFC/10^6 | 120 SFC/10^6 | 613 SFC/10^6 | – | – | – |
| 3324.0102 (DKWLDAKSTWYGKPT) | 593 SFC/10^6 and 233 SFC/10^6 and 123 SFC/10^6 | 447 SFC/10^6 and 233 SFC/10^6 and 123 SFC/10^6 | 147 SFC/10^6 | – | – | – |
| CC(C)[C@H](NC(=O)CNC(=O)[C@H](CO)NC(=O)[C@H](Cc1ccccc1)NC(=O)[C@H](C)NC(=O)[C@H](Cc1c[nH]c2ccccc12)NC(=O)[C@H](CS)NC(=O)[C@@H](N)CO)C(=O)N[C@@H](C)C(=O)N[C@@H](C)C(=O)N[C@H](C(=O)N[C@@H](CCC(=O)O)C(=O)N[C@@H](CO)C(=O)N[C@@H](C)C(=O)N[C@@H](Cc1ccc(O)cc1)C(=O)O)[C@@H](C)O [3324.0832] | 1303 SFC/10^6 and 1007 SFC/10^6 | 843 SFC/10^6 and 233 SFC/10^6 | 460 SFC/10^6 and 773 SFC/10^6 | – | – | – |
| CC[C@H](C)[C@H](NC(=O)[C@H](CCC(=O)O)NC(=O)[C@H](Cc1c[nH]c2ccccc12)NC(=O)[C@@H](NC(=O)CNC(=O)[C@@H](N)CC(=O)O)C(C)C)C(=O)N[C@@H](CCCCN)C(=O)N[C@@H](CO)C(=O)N[C@@H](CC(=O)O)C(=O)N[C@@H](CCCCN)C(=O)N1CCC[C@H]1C(=O)N[C@@H](CC(C)C)C(=O)N[C@@H](CCCCN)C(=O)NCC(=O)N1CCC[C@H]1C(=O)O [3324.1139] | 103 SFC/10^6 and 167 SFC/10^6 | 103 SFC/10^6 and 83 SFC/10^6 | 83 SFC/10^6 | 577 SFC/10^6 and 287 SFC/10^6 | – | 577 SFC/10^6 and 287 SFC/10^6 |
| CC[C@H](C)[C@H](NC(=O)[C@H](C)NC(=O)[C@H](CCCCN)NC(=O)[C@H](CC(N)=O)NC(=O)[C@H](Cc1ccccc1)NC(=O)[C@H](C)NC(=O)CNC(=O)[C@H](CCC(=O)O)NC(=O)[C@H](Cc1ccccc1)NC(=O)[C@@H](NC(=O)[C@@H](NC(=O)[C@H](Cc1ccccc1)NC(=O)[C@H](CCCCN)NC(=O)[C@H](CC(=O)O)NC(=O)[C@@H](N)CC(N)=O)[C@@H](C)O)C(C)C)C(=O)O [3324.1442] | – | – | – | 400 SFC/10^6 and 93 SFC/10^6 | 93 SFC/10^6 | 400 SFC/10^6 |
| CC(C)[C@H](NC(=O)[C@H](C)NC(=O)[C@H](C)NC(=O)[C@H](CCCCN)NC(=O)[C@@H](N)Cc1ccccc1)C(=O)N[C@@H](C)C(=O)N[C@@H](C)C(=O)N[C@@H](C)C(=O)N[C@@H](C)C(=O)NCC(=O)N[C@@H](C)C(=O)N1CCC[C@H]1C(=O)N1CCC[C@H]1C(=O)N[C@@H](C)C(=O)N[C@@H](CC(=O)O)C(=O)O [3324.1575] | – | – | – | 138 SFC/10^6 and 327 SFC/10^6 and 230 SFC/10^6 | 230 SFC/10^6 | 138 SFC/10^6 and 327 SFC/10^6 |
| CC[C@H](C)[C@H](NC(=O)CNC(=O)[C@@H](N)CCCNC(=N)N)C(=O)N[C@@H](CCC(=O)O)C(=O)N[C@@H](Cc1ccc(O)cc1)C(=O)N[C@H](C(=O)N[C@@H](CCC(N)=O)C(=O)N[C@@H](Cc1c[nH]cn1)C(=O)N[C@@H](CC(N)=O)C(=O)NCC(=O)N[C@H](C(=O)N[C@H](C(=O)N[C@@H](CCC(N)=O)C(=O)N[C@@H](CCC(=O)O)C(=O)N[C@@H](CO)C(=O)O)C(C)C)C(C)C)[C@@H](C)CC [3324.0831] | 567 SFC/10^6 and 323 SFC/10^6 | 220 SFC/10^6 | 567 SFC/10^6 and 103 SFC/10^6 | – | – | – |
| 3324.1586 (KAVEAYLVAHPDLYK) | 83 SFC/10^6 and 53 SFC/10^6 and 143 SFC/10^6 and 553 SFC/10^6 | 110 SFC/10^6 | 83 SFC/10^6 and 53 SFC/10^6 and 143 SFC/10^6 and 443 SFC/10^6 | – | – | – |
| CC[C@H](C)[C@H](NC(=O)[C@@H](N)CC(=O)O)C(=O)N[C@@H](Cc1ccc(O)cc1)C(=O)N[C@@H](CC(N)=O)C(=O)N[C@@H](Cc1ccc(O)cc1)C(=O)N[C@@H](CCSC)C(=O)N[C@@H](CCC(=O)O)C(=O)N1CCC[C@H]1C(=O)N[C@@H](Cc1ccc(O)cc1)C(=O)N[C@H](C(=O)N[C@@H](CO)C(=O)N[C@@H](CCCCN)C(=O)N[C@H](C(=O)N[C@@H](CC(=O)O)C(=O)N1CCC[C@H]1C(=O)O)C(C)C)C(C)C [3324.0663] | 73 SFC/10^6 and 302 SFC/10^6 and 107 SFC/10^6 | 73 SFC/10^6 | 302 SFC/10^6 and 107 SFC/10^6 | – | – | – |
